Experimental data: US20130324609A1, “DEPRESSION DISORDER THERAPEUTICS WITH CREATINE ANALOGS” (UNIVERSITY OF UTAH RESEARCH FOUNDATION, priority 2010, published 2013)

Experiments:
Type in all cases: in vivo, human
[1] = system: females between 13-18 years of age with a primary diagnosis of MDD, fluoxetine-treated (SSRI-resistant depression); assay: Open-label adjunctive creatine study: Children's Depression Rating Scale-Revised (CDRS-R) raw score
Protocol: Approval for the study was obtained from the University of Utah Institutional Review Board (IRB). Informed consent consisted of written parental permission as well as written assent from participants. The study was conducted under U.S. Food and Drug Administration (FDA) Investigational New Drug Application #104,586. An external Data Safety and Monitoring Board vested with authority to halt the trial was established, and the study was conducted in accordance of the principles of Good Clinical Practice (GCP).
Participants were recruited through clinician referrals and IRB-approved advertising. Consecutive patients who met inclusion criteria were enrolled. Inclusion criteria included the following: females between 13-18 years of age with a primary diagnosis of MDD and depressive symptoms persisting for >2 weeks at baseline; fluoxetine treatment for >8 weeks with >4 weeks at a dose of >40 mg/day (if doses higher than 20 mg/day were not tolerated, participants could meet inclusion criteria by taking fluoxetine 20 mg/day for >8 weeks); and a current Children's Depression Rating Scale-Revised (CDRS-R) (Poznanski and Mokros 1996) raw score>40. Consistent with the preliminary nature of the study, few exclusion criteria were applied. For example, no restrictions were placed on concomitant medications or psychotherapy. The study's exclusion criteria were: pre-existing renal disease, proteinuria or microalbuminuria at baseline; contraindication to magnetic resonance scanning (e.g. ferromagnetic implants or claustrophobia); primary diagnosis other than MDD; active psychotic symptoms; high risk for suicidal behavior; positive pregnancy test; active alcohol or drug addiction; known or suspected mental retardation; and unstable medical condition.
(§1) Diagnoses were established with the Schedule for Affective Disorders and Schizophrenia for School-Age Children-Present and Lifetime Version (K-SADS-PL) (Kaufman et al. 1997). A complete blood count, metabolic panel, lipid profile, thyroid stimulating hormone, urinalysis and urine microalbumin were obtained to establish that participants were in generally good health, and to rule out the presence of undiagnosed medical conditions. The laboratory studies were repeated at the conclusion of treatment, to prospectively identify any abnormalities associated with creatine administration.
Participants with depression were treated with fixed-dose Creapure® brand of creatine monohydrate (AlzChem LLC, Trostberg, Germany) 4 grams by mouth daily for 8 weeks. At each study visit, the following rating scales were administered: the CDRS ? R, the Clinical Global Impressions scale (Guy 1976) and the Columbia-Suicide Severity Rating Scale (C-SSRS) (Posner 2010). Adverse events were recorded at each study visit. Change in CDRS-R raw score was the primary outcome measure, with C-SSRS results and treatment-emergent adverse events serving as secondary clinical outcomes. ^31P-MRS brain scans were acquired with a Siemens 3 Tesla MRS scanner (Siemens AG, Munich, Germany) that is FDA-approved for clinical use. Two dimensional chemical shift imaging free induction decay (2D CSI FID) pulse sequence with an Fourier voxel resolution of 25×25×25 mm3, Field of View (FOV)=200×200×25 mm3, TR/TE=3000/2.3 ms, vector size=1024, bandwidth=2500 Hz, data collection time=11.2 minutes and the number of averages=24 was implemented to collect 2D CSI FID data using a ^31P/1H double-tuned volume head coil (Clinical MR Solutions LLC, Brookfield, Wis., USA). The proton channel was used for localization, high-resolution anatomic image acquisition and shimming Shimming was performed over the excited volume. 3D high-resolution images used for localization of CSI data were collected using inversion recovery magnetization prepared rapid gradient echo (MP-RAGE) pulse sequence with isotropic 1 mm3 resolution. […]

[2] = system: brain phosphorus metabolites (PCr, b-NTP, pH); assay: 31P-MRS brain scans of phosphorus metabolites at baseline and after 8 weeks of creatine
Protocol: Healthy control female adolescents were recruited for comparison ^31P-MRS scans through IRB-approved advertising. Following informed consent, the K-SADS-PL and CDRS-R were administered to establish the absence of psychiatric disorder(s) or depressive symptoms.
(§2) Participants with depression were treated with fixed-dose Creapure® brand of creatine monohydrate (AlzChem LLC, Trostberg, Germany) 4 grams by mouth daily for 8 weeks. At each study visit, the following rating scales were administered: the CDRS ? R, the Clinical Global Impressions scale (Guy 1976) and the Columbia-Suicide Severity Rating Scale (C-SSRS) (Posner 2010). Adverse events were recorded at each study visit. Change in CDRS-R raw score was the primary outcome measure, with C-SSRS results and treatment-emergent adverse events serving as secondary clinical outcomes. ^31P-MRS brain scans were acquired with a Siemens 3 Tesla MRS scanner (Siemens AG, Munich, Germany) that is FDA-approved for clinical use. Two dimensional chemical shift imaging free induction decay (2D CSI FID) pulse sequence with an Fourier voxel resolution of 25×25×25 mm3, Field of View (FOV)=200×200×25 mm3, TR/TE=3000/2.3 ms, vector size=1024, bandwidth=2500 Hz, data collection time=11.2 minutes and the number of averages=24 was implemented to collect 2D CSI FID data using a ^31P/1H double-tuned volume head coil (Clinical MR Solutions LLC, Brookfield, Wis., USA). The proton channel was used for localization, high-resolution anatomic image acquisition and shimming Shimming was performed over the excited volume. 3D high-resolution images used for localization of CSI data were collected using inversion recovery magnetization prepared rapid gradient echo (MP-RAGE) pulse sequence with isotropic 1 mm3 resolution. The imaging parameters were as follows: TR/TE=2000/3.37 ms, FOV=256×192×144 mm3, and matrix size=256×1 92×144, for a total acquisition time of 4.8 minutes. Participants were instructed during the informed consent process, and again before entering the scanner, that they could discontinue scanning at any point if they experienced discomfort (e.g. claustrophobic anxiety). Non-study personnel trained in research patient advocacy attended each scanning session. The study protocol included two ^31P-MRS scans: one at baseline and a follow-up scan 8 weeks later.
^31P MRS data were analyzed using jMRUI software (jMRUI version 4.0, European Community). A Hamming filter was applied to reduce signal contamination from neighbouring voxels before performing 2D Fast Fourier Transform (FFT) on the raw data. Nine voxel signals from a slice with a thickness of 25 mm located at the corpus callosum, anterior commissure and posterior commissure were summed after 2D FFT. Each voxel FID was apodized with a 10 Hz exponential line broadening before zero filling and FFT. The zero-order and first-order phase correction was performed in all spectrums.
We calculated the signal amplitudes for individual metabolites using AMARES (Advanced Method for Accurate, Robust and Efficient Spectral fitting of MRS data), which is a non-linear, time domain fitting algorithm within the jMRUI software application. The estimated amplitudes of phosphorus metabolites are reported with respect to the total ^31P or beta-NTP amplitude within the time domain signals. The ^31P MRS signal amplitude for each metabolite is directly related to the integrated area under the modeled spectrum in the frequency domain.
The depressed participants' ^31P-MRS brain scans were performed at baseline (prior to the first dose of creatine) and repeated at the conclusion of treatment. We enrolled and acquired baseline scans from ten healthy female adolescent controls; six agreed to return eight weeks later for a second scan. Statistical analyses were performed using JMP 8 (SAS Inc., Cary, N.C. USA). Because this was an open-label pilot study, all analyses were considered exploratory and no correction for multiple hypothesis testing was applied.

[3] = Adverse events, vital signs and laboratory tests during creatine treatment
Source text: as §1, §2
Participants' vital signs were recorded at each study visit. […] Although not measured systematically, participant and parent acceptance of creatine as a treatment intervention appeared good, and there were no premature terminations due to concerns about the study drug.

[4] = system: suicidality in female adolescents with MDD; assay: Columbia-Suicide Severity Rating Scale (C-SSRS) monitoring during creatine treatment; settings: for C-SSRS During Treatment With Creatine (Weeks): monohydrate
Protocol: as §2
One participant reported no history of suicidal thoughts or behavior, but the others each endorsed significant histories of suicidality, indicating the severity and chronicity of the participants. Three of the participants had attempted suicide between 5 months and 5 years prior to study entry; at intake, four participants reported suicidal ideation in the 2 weeks prior to their baseline visit. During the treatment phase of the study, two participants reported no suicidality. Three participants reported suicidal ideation as treatment began, which lasted between 2 and 6 weeks. […]

[5] = entry vs week 8, creatine 4 g daily adjunctive to fluoxetine, n=5

For CN(CC(=O)O)C(=N)N.O [creatine, creatine monohydrate], the “mean CDRS-R score after eight weeks of treatment” value ([1]; creatine monohydrate 4 g by mouth daily for 8 weeks, adjunctive to fluoxetine, n=5, mean raw score at entry 69) was 30.6, the “decrease of mean CDRS-R raw score” value [1, 5] was 56% and the “mean reduction in CDRS-R raw score (primary outcome measure)” value [1, 5] was 38.4. The “CDRS-R (Week)” value ([1]; participant 1, week 8, baseline 82, fluoxetine 40 mg) was 24 (8), the “CDRS-R (Week)” value ([1]; participant 2, week 8, baseline 76, fluoxetine 40 mg) was 44 (8) and the “CDRS-R (Week)” value ([1]; participant 3, week 8, baseline 59, fluoxetine 40 mg) was 29 (8). The “CDRS-R (Week)” value ([1]; participant 4, week 8, baseline 66, fluoxetine 20 mg) was 23 (8), the “CDRS-R (Week)” value ([1]; participant 5, week 8, baseline 62, fluoxetine 40 mg) was 33 (8) and the “mean CDRS-R raw score at week ten” value ([1]; two weeks after discontinuation of creatine, compared with week 8) was “lower than at the conclusion of treatment”. For the same compound, the “PCr-TP, Mean 8 Weeks” value ([2]; MDD group n=5 after 8 weeks creatine 4 g daily, mean baseline 0.1525, p 0.020 paired t-test) was 0.1610, the “b-NTP/TP, Mean 8 Weeks” value ([2]; MDD group n=5 after 8 weeks creatine, mean baseline 0.125, p 0.729) was 0.128 and the “PCr/b-NTP, Mean 8 Weeks” value ([2]; MDD group n=5 after 8 weeks creatine, mean baseline 1.221, p 0.528) was 1.270. For the same compound, the “pH, Mean 8 Weeks” value ([2]; MDD group n=5 after 8 weeks creatine, mean baseline 7.059, p 0.648) was 7.071, the “change in mean PCr/b-NTP ratio” value ([2]; following 8 weeks of treatment) was “no change” and the “change in mean b-NTP” value ([2]; following 8 weeks of treatment) was “no change”. The “change in mean pH” value ([2]; following 8 weeks of treatment) was “no change”, the “change in mean PCr” value ([2]; following 8 weeks of treatment, p=0.020, paired t-test, 2-tailed) was “significant increase” and the “Serious Adverse Events (SAEs)” value ([3]; in vivo) was “no Serious Adverse Events”. For the same compound, the “changes in weight, blood pressure or heart rate” value ([3]; in vivo) was “No statistically significant changes”, the “course of adverse events” value ([3]; in vivo) was “self-limited” and the “microalbuminuria or serum creatinine outside the reference range” value ([3]; in vivo) was “No participant developed microalbuminuria or a serum creatinine outside the reference range”. For the same compound, the tolerability ([3]; in vivo) was “well tolerated”, the “withdrawal due to treatment emergent adverse effects or lack of efficacy” value ([3]; in vivo) was “No participant withdrew” and the “Adverse Events” value ([3]; participant 3, * = possibly or probably related to study drug, monohydrate) was “H1N1 influenza*”. For the same compound, the “duration of suicidal ideation reported as treatment began” value ([4]; in vivo) was 2-6 weeks, the “outcome of participants' suicidal thoughts” value ([4]; in vivo) was “resolved during treatment with creatine and did not recur” and the “C-SSRS During Treatment With Creatine (Weeks)” value ([4]; participant 3, baseline: wish to be dead 1 week prior to study drug) was “Wish to be Dead (1)”. For the same compound, the “C-SSRS During Treatment With Creatine (Weeks)” value ([4]; participant 4, baseline: wish to be dead 1 week prior to study entry) was “Wish to be Dead (1-5)”.
